For assay [1], the target named is ORF 73 (Human herpesvirus 8, UniProt O40947). The assay can be described thus: inhibitors of C-LANA binding to LBS DNA, dose response, biochemical, fluorescence polarization, cherry-picked samples (AID 504725).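 Further: fluorescence polarization of a labeled DNA duplex reporting LANA DNA binding; potency is for inhibitors that block LANA binding to the DNA.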 The arrangement: species or system Human gammaherpesvirus 8.
Assay [2] has as its target T1, Apoptotic protease-activating factor 1 (Homo sapiens, UniProt O14727).
T1 sequence (O14727 whole entry): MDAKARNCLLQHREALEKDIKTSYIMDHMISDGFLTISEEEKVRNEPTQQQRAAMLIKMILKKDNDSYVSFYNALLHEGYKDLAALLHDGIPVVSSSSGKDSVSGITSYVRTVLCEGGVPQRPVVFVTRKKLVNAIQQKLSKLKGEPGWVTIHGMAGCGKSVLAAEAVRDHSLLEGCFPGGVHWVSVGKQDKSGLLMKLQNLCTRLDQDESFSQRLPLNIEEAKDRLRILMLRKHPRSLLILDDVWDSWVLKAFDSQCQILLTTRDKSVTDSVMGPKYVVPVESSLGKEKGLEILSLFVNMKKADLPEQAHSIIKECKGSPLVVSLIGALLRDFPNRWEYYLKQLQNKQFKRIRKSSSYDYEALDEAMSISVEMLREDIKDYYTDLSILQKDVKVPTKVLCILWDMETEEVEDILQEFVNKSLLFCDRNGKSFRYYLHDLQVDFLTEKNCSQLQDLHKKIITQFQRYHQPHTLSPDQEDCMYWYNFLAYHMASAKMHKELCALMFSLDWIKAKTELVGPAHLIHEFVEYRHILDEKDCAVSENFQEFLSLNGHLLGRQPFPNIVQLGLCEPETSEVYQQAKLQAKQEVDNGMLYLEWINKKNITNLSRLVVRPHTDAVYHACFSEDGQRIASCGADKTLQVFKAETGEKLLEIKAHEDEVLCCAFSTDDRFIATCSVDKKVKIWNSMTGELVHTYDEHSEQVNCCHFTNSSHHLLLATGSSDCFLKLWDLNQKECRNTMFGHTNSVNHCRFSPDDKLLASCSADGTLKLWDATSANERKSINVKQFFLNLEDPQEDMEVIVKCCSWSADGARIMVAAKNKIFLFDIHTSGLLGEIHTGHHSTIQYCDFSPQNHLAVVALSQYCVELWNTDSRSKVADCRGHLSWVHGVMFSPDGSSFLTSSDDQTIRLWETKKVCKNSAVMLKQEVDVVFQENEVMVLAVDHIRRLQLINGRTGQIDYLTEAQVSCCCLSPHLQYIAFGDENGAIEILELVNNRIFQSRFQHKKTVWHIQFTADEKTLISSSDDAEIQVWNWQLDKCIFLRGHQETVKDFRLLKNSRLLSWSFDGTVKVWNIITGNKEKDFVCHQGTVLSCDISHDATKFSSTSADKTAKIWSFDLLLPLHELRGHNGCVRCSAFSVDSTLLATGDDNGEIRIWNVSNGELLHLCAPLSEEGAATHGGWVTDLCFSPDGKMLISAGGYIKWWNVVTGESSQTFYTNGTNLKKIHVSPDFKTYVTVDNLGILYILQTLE
It counts as functional.

For assay [3], the target named is T2, 1-phosphatidylinositol 4,5-bisphosphate phosphodiesterase gamma-1 (Homo sapiens, UniProt P19174).
T2 sequence (P19174 whole entry): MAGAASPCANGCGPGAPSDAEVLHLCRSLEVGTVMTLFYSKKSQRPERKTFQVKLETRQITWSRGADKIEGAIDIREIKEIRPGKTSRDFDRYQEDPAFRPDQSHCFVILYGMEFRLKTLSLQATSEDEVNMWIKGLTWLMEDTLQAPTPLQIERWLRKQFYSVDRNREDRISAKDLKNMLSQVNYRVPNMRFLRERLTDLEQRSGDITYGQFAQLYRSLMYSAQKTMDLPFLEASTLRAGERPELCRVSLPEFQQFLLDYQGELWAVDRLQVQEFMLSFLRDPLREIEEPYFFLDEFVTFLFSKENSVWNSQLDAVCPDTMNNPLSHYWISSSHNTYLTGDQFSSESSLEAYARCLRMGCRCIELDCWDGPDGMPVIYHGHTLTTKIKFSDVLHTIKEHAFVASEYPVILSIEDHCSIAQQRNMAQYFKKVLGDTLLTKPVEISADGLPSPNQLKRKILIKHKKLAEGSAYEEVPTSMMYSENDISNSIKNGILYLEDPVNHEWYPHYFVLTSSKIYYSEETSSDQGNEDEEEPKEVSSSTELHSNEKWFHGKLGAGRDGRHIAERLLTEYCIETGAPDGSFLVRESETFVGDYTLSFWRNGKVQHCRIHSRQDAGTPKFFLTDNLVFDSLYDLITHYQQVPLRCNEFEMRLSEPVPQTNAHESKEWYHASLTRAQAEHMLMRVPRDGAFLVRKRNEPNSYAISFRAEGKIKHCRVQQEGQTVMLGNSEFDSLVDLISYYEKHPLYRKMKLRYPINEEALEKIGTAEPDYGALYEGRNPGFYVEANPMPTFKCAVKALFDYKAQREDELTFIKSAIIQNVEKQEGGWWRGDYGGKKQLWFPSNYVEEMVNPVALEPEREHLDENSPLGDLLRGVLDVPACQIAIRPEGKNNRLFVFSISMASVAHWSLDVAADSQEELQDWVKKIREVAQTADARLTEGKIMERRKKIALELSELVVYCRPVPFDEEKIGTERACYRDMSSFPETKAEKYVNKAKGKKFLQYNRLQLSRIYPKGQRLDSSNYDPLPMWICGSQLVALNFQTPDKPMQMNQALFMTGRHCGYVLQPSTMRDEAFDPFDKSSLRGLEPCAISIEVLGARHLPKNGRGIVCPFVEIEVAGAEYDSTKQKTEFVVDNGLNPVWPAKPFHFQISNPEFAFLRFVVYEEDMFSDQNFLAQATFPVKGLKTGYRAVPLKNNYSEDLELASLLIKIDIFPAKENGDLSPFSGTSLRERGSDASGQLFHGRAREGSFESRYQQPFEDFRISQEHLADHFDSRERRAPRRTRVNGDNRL
The assay can be described thus: Counterscreen for inhibitors of phospholipase C isozymes (PLC-B3): Fluorescence-based biochemical high throughput dose response assay to identify inhibitors of phospholipase C isozymes (PLC-gamma1). For orientation: A counterscreen serves to expose hits that act by an unwanted route or on another target.

The target in assay [4] is T3, Streptokinase A (Streptococcus pyogenes serotype M1, UniProt P10520).
T3 sequence (P10520 whole entry): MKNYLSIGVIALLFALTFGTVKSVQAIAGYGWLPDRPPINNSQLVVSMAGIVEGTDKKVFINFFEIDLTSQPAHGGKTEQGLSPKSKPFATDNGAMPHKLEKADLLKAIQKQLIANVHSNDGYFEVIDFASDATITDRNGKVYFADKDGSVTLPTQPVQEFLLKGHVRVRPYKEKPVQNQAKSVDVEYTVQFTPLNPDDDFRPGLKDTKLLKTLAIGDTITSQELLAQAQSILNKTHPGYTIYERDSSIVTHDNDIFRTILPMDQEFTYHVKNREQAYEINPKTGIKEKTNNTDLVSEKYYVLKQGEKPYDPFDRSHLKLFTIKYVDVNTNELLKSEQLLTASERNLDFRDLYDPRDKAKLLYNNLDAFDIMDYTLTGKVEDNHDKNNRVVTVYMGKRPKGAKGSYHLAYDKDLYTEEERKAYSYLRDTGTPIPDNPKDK
The assay can be described thus: S. pyogenes streptokinase expression inhibitors, potency, dose response, plasminogen activation absorbance, OD405 (AID 1914).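 Further: secreted streptokinase activity via plasminogen activation per viability signal from cell pellet.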 The assay is classed as functional, Streptococcus pyogenes M1 GAS.

The source made the active and inactive calls.

Sequence of ORF 73 (O40947 whole entry): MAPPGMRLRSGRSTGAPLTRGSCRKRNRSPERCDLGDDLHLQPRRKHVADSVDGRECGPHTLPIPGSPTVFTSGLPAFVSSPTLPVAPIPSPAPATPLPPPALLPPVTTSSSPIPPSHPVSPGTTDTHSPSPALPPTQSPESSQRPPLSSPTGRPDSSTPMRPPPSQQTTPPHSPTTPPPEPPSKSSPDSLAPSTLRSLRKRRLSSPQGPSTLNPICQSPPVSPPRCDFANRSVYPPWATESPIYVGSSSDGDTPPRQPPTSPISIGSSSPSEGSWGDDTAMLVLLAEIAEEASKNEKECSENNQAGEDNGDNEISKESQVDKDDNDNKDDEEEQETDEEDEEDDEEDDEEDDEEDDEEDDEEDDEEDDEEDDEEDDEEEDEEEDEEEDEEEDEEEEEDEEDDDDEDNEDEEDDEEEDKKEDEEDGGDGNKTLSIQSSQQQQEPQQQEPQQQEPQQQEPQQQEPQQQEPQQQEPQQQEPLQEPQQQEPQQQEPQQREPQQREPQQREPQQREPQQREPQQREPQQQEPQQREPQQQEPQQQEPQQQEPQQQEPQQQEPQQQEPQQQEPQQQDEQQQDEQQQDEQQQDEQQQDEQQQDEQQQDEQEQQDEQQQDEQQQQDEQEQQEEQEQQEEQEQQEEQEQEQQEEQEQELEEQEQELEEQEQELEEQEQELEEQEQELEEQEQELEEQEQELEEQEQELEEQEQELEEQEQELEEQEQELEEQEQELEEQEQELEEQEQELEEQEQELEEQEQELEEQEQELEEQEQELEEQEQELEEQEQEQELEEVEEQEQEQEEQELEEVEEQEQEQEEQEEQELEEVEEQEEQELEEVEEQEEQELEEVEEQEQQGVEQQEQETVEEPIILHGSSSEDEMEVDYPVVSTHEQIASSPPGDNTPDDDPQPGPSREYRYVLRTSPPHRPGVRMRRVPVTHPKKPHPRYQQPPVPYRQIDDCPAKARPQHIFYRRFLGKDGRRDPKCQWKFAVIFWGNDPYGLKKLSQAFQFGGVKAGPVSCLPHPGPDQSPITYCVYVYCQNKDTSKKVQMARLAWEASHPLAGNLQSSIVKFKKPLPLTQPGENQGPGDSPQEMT

The term AC50 denotes the concentration giving half of the maximal activity seen. Take `COc1ccc(NS(=O)(=O)c2ccc3c(c2)[C@H]2C=CC[C@H]2[C@@H](c2ccc(C(=O)O)cc2)N3)cc1`: the AC50 in assay [1] was 71.9 µM (active). One may read the IC50 as the concentration needed to halve the response being measured. As for `Cn1nc(-c2ccccn2)nc2c(=O)n(C)c(=O)nc1-2`, the figures for the half-inhibitory concentration (IC50) in assay [2] and in assay [3] were 0.079 µM (active) and > 4.54 µM (active), respectively. A word on the EC50: it is the concentration at which the effect is half-maximal. On to `CCCCCCCCCCn1c2c(c(=N)c3c1CCC3)CCC2`, for which the concentration giving a half-maximal response (EC50) in assay [4] was 4.86 µM (active).

Source of the values: ChEMBL document CHEMBL1201862, “PubChem BioAssay data set” (2004).
